Assay results published in patent US12187712B2, “Cardiac sarcomere inhibitors” (Cytokinetics, Inc., priority 2018, dated 2025).

biological target: T1, bovine cardiac myofibrils (Bos taurus, UniProt Q9BE39); assay: Skinned myofibril ATPase assay (PK/LDH-coupled), CDMF75; assay type: biochemical; conditions: inhibition of steady-state ATPase activity of bovine cardiac myofibrils at 75% Ca2+ activation (pCa75)
T1 construct: full-length cardiac myosin in the context of the native sarcomere, skinned myofibril assays were performed; from tissue; host or cells: bovine cardiac left ventricular tissue, detergent-skinned (Triton X-100) myofibrils
T1 sequence (Q9BE39 whole entry): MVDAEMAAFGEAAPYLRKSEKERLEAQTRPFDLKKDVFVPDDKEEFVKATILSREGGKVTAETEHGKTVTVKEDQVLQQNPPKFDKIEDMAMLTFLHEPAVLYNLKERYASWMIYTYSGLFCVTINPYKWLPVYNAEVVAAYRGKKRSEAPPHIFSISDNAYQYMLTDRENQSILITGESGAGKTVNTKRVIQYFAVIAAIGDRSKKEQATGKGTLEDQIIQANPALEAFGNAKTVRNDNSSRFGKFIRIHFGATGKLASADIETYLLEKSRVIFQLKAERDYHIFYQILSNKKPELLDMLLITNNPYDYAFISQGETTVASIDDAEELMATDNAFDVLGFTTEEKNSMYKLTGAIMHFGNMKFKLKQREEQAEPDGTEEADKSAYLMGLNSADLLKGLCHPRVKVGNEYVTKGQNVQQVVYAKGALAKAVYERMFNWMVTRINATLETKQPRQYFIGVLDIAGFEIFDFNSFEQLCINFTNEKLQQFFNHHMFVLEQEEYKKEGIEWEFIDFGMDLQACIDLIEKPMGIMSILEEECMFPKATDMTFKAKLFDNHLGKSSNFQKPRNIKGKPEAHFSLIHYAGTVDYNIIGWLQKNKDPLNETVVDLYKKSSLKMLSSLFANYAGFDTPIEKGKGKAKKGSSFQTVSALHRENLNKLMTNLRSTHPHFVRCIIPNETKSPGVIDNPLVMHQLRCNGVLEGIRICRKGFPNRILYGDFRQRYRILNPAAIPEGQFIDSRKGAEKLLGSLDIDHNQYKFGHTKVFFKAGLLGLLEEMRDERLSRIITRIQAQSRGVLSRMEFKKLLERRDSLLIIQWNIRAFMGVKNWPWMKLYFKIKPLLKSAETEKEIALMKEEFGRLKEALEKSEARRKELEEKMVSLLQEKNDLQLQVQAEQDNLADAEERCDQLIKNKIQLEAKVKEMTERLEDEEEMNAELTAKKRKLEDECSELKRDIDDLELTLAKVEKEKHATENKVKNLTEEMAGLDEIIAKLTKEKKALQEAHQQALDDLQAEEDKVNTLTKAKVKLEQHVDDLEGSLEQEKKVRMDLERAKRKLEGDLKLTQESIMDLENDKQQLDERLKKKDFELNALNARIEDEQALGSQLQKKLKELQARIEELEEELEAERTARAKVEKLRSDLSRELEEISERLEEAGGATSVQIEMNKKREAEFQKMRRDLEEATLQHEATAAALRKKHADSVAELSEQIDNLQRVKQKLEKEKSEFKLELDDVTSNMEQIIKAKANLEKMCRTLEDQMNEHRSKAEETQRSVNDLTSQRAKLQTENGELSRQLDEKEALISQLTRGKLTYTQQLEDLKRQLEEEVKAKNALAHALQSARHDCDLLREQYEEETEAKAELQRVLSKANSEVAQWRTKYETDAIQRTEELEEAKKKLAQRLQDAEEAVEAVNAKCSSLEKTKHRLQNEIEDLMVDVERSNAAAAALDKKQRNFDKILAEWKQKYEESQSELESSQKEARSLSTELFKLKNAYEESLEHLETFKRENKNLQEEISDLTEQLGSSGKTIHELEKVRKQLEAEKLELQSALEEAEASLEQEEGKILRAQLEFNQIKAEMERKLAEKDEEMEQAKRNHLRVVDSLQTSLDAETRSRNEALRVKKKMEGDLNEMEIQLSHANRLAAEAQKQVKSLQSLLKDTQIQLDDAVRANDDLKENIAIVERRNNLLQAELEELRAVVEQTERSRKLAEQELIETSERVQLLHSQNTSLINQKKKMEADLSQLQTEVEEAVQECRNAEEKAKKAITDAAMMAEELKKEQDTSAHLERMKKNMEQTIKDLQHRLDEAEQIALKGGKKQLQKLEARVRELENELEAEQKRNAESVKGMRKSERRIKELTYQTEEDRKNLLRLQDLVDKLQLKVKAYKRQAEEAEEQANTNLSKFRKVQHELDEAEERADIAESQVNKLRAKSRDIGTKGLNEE
T1 sequence (P85100 whole entry partner): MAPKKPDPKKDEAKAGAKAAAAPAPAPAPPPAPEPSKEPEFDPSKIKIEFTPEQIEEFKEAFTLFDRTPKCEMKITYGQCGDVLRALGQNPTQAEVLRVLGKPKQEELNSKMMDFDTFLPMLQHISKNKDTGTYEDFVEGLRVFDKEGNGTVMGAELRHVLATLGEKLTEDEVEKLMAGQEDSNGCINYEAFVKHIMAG
T1 sequence (Q3SZE5 whole entry partner): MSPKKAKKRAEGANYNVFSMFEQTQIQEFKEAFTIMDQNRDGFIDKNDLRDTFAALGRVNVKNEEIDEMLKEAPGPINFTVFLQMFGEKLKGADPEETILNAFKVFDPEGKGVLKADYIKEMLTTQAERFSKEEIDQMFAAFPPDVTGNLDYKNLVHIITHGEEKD
Experimental: To evaluate the effect of compounds on the ATPase activity of full-length cardiac myosin in the context of the native sarcomere, skinned myofibril assays were performed. Bovine cardiac myofibrils were obtained by homogenizing bovine cardiac left ventricular tissue in the presence of a detergent such as triton X-100. Such treatment removes membranes and a majority of the soluble cytoplasmic proteins but leaves intact the cardiac sarcomeric acto-myosin apparatus. Myofibril preparations retain the ability to hydrolyze ATP in an Ca^2+ regulated manner. ATPase activities of such myofibril preparations in the presence and absence of compounds were assayed at Ca^2+ concentrations activating to a defined fraction of the maximal rate (i.e., 25%, 75%). Small molecule agents were assessed for their ability to inhibit the steady-state ATPase activity of bovine cardiac myofibrils using pyruvate kinase and lactate dehydrogenase (PK/LDH)-coupled enzyme system. This assay regenerates myosin-produced ADP into ATP by oxidizing NADH, producing an absorbance change at 340 nm. Prior to testing small molecule agents, the bovine cardiac myofibrils were assessed for their calcium responsiveness and the calcium concentration that achieves either a 50% (pCa50) or 75% (pCa75) activation of the myofibril system was chosen as the final condition for assessing the inhibitory activity of the small molecule agents. All enzymatic activity was measured in a buffered solution containing 12 mM PIPES (piperazine-N,N′-bis(2-ethanesulfonic acid), 2 mM magnesium chloride at pH 6.8 (PM 12 buffer). Final assay conditions were 1 mg/mL of bovine cardiac myofibrils, 4 U/mL pyruvate kinase, 6 U/mL lactate dehydrogenase, 50 μM ATP, 0.1 mg/mL BSA (bovine serum albumin), 10 ppm antifoam, 1 mM DTT, 0.5 mM NADH, 1.5 mM PEP, 0.6 mM EGTA, and an amount of CaCl2 sufficient to achieve either 50% or 75% activation of the myofibril ATPase activity. Results for compounds tested are provided in Table A. Compounds tested were prepared in accordance with the synthetic procedures described herein.

SMILES | CDMF75 IC15 [µM] | IC50 [µM]
Fc1cc(-c2noc(C3CC3)n2)ccc1CNc1cnccn1 [Compound 47, N-(4-(5-cyclopropyl-1,2,4-oxadiazol-3-yl)-2-fluorobenzyl)pyrazin-2-amine] | 0.3 | 1.7
Cc1nc(-c2ccc(CNC(=O)c3ccccc3)cc2)no1 [Compound 50, N-(4-(5-methyl-1,2,4-oxadiazol-3-yl)benzyl)benzamide] | 3.4 | 15.1
Cc1nc(-c2ccc(CNc3ccnc(Cl)c3)cc2)no1 [Compound 44, 2-chloro-N-(4-(5-methyl-1,2,4-oxadiazol-3-yl)benzyl)pyridin-4-amine] | 2.2 | 10.9
Cc1nc(-c2ccc(CNc3cncc(Cl)n3)cc2)no1 [Compound 1, 6-chloro-N-(4-(5-methyl-1,2,4-oxadiazol-3-yl)benzyl)pyrazin-2-amine] | 1.4 | 8.1
Cc1nc(-c2ccc(CNc3cc(C4CC4)ncn3)cc2)no1 [Compound 6, 6-cyclopropyl-N-(4-(5-methyl-1,2,4-oxadiazol-3-yl)benzyl)pyrimidin-4-amine] |  | 27
Cc1nc(-c2ccc(CNc3ccc(C#N)cn3)cc2)no1 [Compound 14, 6-((4-(5-methyl-1,2,4-oxadiazol-3-yl)benzyl)amino) nicotinonitrile] | 4.6 | 20.9
Cc1noc(-c2ccc(CNc3cc(Cl)ncn3)cc2)n1 [Compound 18, 6-chloro-N-(4-(3-methyl-1,2,4-oxadiazol-5-yl)benzyl)pyrimidin-4-amine] | 0.4 | 2.1
FC(F)c1nc(-c2ccc(CNc3cnccn3)cc2)no1 [Compound 24, N-(4-(5-(difluoromethyl)-1,2,4-oxadiazol-3-yl)benzyl)pyrazin-2-amine] | 0.8 | 3.1
CC(C)c1nc(-c2ccc([C@@H](C)Nc3cnccn3)cc2)no1 [Compound 35, (R)-N-(1-(4-(5-isopropyl-1,2,4-oxadiazol-3-yl)phenyl)ethyl)pyrazin-2-amine] | 0.7 | 3
Cc1nc(-c2ccc(CNc3ccncn3)cc2)no1 [Compound 3, N-(4-(5-methyl-1,2,4-oxadiazol-3-yl)benzyl)pyrimidin-4-amine] | 3.6 | 27.7
Cc1nc(-c2ccc3c(c2)CCC3Nc2cnccn2)no1 (stereo not shown) [Compound 55, N-[5-(5-methyl-1,2,4-oxadiazol-3-yl)-2,3-dihydro-1H-inden-1-yl]pyrazin-2-amine] | 0.4 | 1.3
Cc1nc(-c2ccc(CNc3cc(C#N)ncn3)nc2)no1 [Compound 17, 6-(((5-(5-methyl-1,2,4-oxadiazol-3-yl)pyridin-2-yl)methyl)amino)pyrimidine-4-carbonitrile] | 2.9 | 18.9
Cc1nc(-c2ccc(CNc3cnc(Cl)cn3)cc2)no1 [Compound 13, 5-chloro-N-(4-(5-methyl-1,2,4-oxadiazol-3-yl)benzyl)pyrazin-2-amine] | 0.3 | 1.5
Cc1nc(-c2ccc(CNC(=O)Oc3ccccc3)cc2)no1 [Compound 58, phenyl (4-(5-methyl-1,2,4-oxadiazol-3-yl)benzyl)carbamate] | 2.3 | 11.4
Cc1cnc(-c2ccc(CNc3cc(Cl)ncn3)cc2)o1 [Compound 27, 6-chloro-N-(4-(5-methyloxazol-2-yl)benzyl)pyrimidin-4-amine] | 1.2 | 8.9
Fc1cc(-c2noc(C(F)(F)F)n2)ccc1CNc1cnccn1 [Compound 45, N-(2-fluoro-4-(5-(trifluoromethyl)-1,2,4-oxadiazol-3-yl)benzyl)pyrazin-2-amine] | 0.9 | 4
Cc1nc(-c2ccc(CNc3cnc(C(F)(F)F)cn3)cc2)no1 [Compound 16, N-(4-(5-methyl-1,2,4-oxadiazol-3-yl)benzyl)-5-(trifluoromethyl)pyrazin-2-amine] | 3.1 | 17.3
Cc1nc(-c2ccc3c(c2)CCCC3Nc2cnccn2)no1 (stereo not shown) [Compound 59, N-(6-(5-methyl-1,2,4-oxadiazol-3-yl)-1,2,3,4-tetrahydronaphthalen-1-yl)pyrazin-2-amine] | 0.7 | 2.2
COC(=O)c1nc(-c2ccc(CNc3cnccn3)cc2)no1 [Compound 30, methyl 3-(4-((pyrazin-2-ylamino)methyl)phenyl)-1,2,4-oxadiazole-5-carboxylate] | 0.5 | 2.6

SMILES | CDMF75 IC15 [µM] | IC50 [µM]
C[C@@H](Nc1cnccn1)c1ccc(-c2noc(-c3cccs3)n2)cc1 [Compound 40, (R)-N-(1-(4-(5-(thiophen-2-yl)-1,2,4-oxadiazol-3-yl)phenyl)ethyl)pyrazin-2-amine] | 0.3 | 1.1
Cc1cc(-c2nc(-c3ccc([C@@H](C)Nc4cnccn4)cc3)no2)on1 [Compound 38, (R)-N-(1-(4-(5-(3-methylisoxazol-5-yl)-1,2,4-oxadiazol-3-yl)phenyl)ethyl)pyrazin-2-amine] | 3.0 | 19.1
Cc1nc(-c2ccc(CNC(=O)c3ccncc3O)cc2)no1 [Compound 63, 3-hydroxy-N-(4-(5-methyl-1,2,4-oxadiazol-3-yl)benzyl)isonicotinamide] |  | > 39.2
C[C@@H](Nc1cnccn1)c1ccc(-c2noc(C(F)F)n2)cc1 [Compound 33, (R)-N-(1-(4-(5-(difluoromethyl)-1,2,4-oxadiazol-3-yl)phenyl)ethyl)pyrazin-2-amine] | 0.3 | 1.5
Cc1cnc(-c2ccc(CNc3cnccn3)cc2)o1 [Compound 49, N-[[4-(5-methyl-1,3-oxazol-2-yl)phenyl]methyl]pyrazin-2-amine] | 0.3 | 28.6
Fc1cc(CNc2cnccn2)ccc1-c1noc(C(F)(F)F)n1 [Compound 42, N-(3-fluoro-4-(5-(trifluoromethyl)-1,2,4-oxadiazol-3-yl)benzyl)pyrazin-2-amine] | 0.8 | 4.8
Cc1coc(-c2ccc(CNc3cnccn3)cc2)n1 [Compound 69, N-[[4-(4-methyl-1,3-oxazol-2-yl)phenyl]methyl]pyrazin-2-amine] | 18.4 | > 39.2
Cc1nc(-c2ccc(CNc3cnc(C#N)cn3)cc2)no1 [Compound 10, 5-((4-(5-methyl-1,2,4-oxadiazol-3-yl)benzyl)amino)pyrazine-2-carbonitrile] | 1.3 | 7.6
COC(=O)NCc1ccc(-c2noc(C)n2)cc1 [Compound 54, methyl (4-(5-methyl-1,2,4-oxadiazol-3-yl)benzyl)carbamate] | 6.0 | 25.8
Cc1cc(-c2ccc(CNc3cc(=O)[nH]cn3)cc2)no1 [Compound 65, 6-((4-(5-methylisoxazol-3-yl)benzyl)amino)pyrimidin-4(3H)-one] | 7.6 | > 39.2
C[C@@H](Nc1cnccn1)c1ccc(-c2noc(C3CC3)n2)cc1 [Compound 31, (R)-N-(1-(4-(5-cyclopropyl-1,2,4-oxadiazol-3-yl)phenyl)ethyl)pyrazin-2-amine] | 0.4 | 1.51
Cc1nc(-c2ccc(CNc3cc(C#N)ncn3)cc2)no1 [Compound 7, 6-((4-(5-methyl-1,2,4-oxadiazol-3-yl)benzyl)amino)pyrimidine-4-carbonitrile] |  | 1.8
Cc1nc(-c2ccc(CNc3ccnc(Cl)n3)cc2)no1 [Compound 12, 2-chloro-N-(4-(5-methyl-1,2,4-oxadiazol-3-yl)benzyl)pyrimidin-4-amine] | 2.5 | 9.8
Cc1onc(-c2ccc(CNc3cnccn3)cc2)c1I [Compound 51, N-(4-(4-iodo-5-methylisoxazol-3-yl)benzyl)pyrazin-2-amine] | 0.2 | 0.9
Cc1nc(-c2ccc(CNc3cc(C(F)(F)F)ncn3)cc2)no1 [Compound 5, N-(4-(5-methyl-1,2,4-oxadiazol-3-yl)benzyl)-6-(trifluoromethyl)pyrimidin-4-amine] |  | 3.7
C[C@@H](Nc1cnccn1)c1ccc(-c2noc(C3CCC3)n2)cc1 [Compound 32, (R)-N-(1-(4-(5-cyclobutyl-1,2,4-oxadiazol-3-yl)phenyl)ethyl)pyrazin-2-amine] | 0.3 | 1.4
Cc1cc(-c2ccc(CNc3cnccn3)cc2)on1 [Compound 53, N-(4-(3-methylisoxazol-5-yl)benzyl)pyrazin-2-amine] | 2.1 | 9.4
CCc1nc(-c2ccc(CNc3cc(C#N)ncn3)cc2)no1 [Compound 11, 6-((4-(5-ethyl-1,2,4-oxadiazol-3-yl)benzyl)amino)pyrimidine-4-carbonitrile] | 0.2 | 0.7
